Measured values reported in patent publication US3978129A, “Alkenyl- and alkanylamines” (A. H. Robins Company, Incorporated, priority 1972, dated 1976).
Counter-ions that a name gives are not always drawn.

test system: depressant effects of tetrabenazine; test: Blocking the depressant effects induced in mice by intravenous tetrabenazine (modified Englehardt procedure, increased tetrabenazine dosage); type: in vivo; details: Mus musculus, ip, compounds I.P.
Experimental: The compounds were administered to mice intraperitoneally and the effectiveness of the compounds in blocking the depressant effects which are induced in mice by intravenous administration of 2-oxo-3-isobutyl-9,10-di-methoxy-1,2,3,4,6,7-hexahydro-11-bh-benzo[a]quinolizine (tetrabenazine was determined. The procedure used was a modification of that given by Englehardt, E. L. et al, J. Med. Chem. 11 (2) : 325(1968) wherein tetrabenazine dosage is increased over the Englehardt procedure. The ED50 of the compounds tested in blocking the depressant activity of tetrabenazine are given in Table I.

Compared with CN(C)CCC(=CCCCl)c1ccccc1 [Example 1, 6-Chloro-N,N-dimethyl-3-phenyl-3-hexenylamine Hydrochloride], CN(C)CCCC(=CCCCl)c1ccccc1 [Example 4, 7-Chloro-N,N-dimethyl-4-phenyl-4-heptenylamine Oxalate] is 8-fold higher in ED50: 2.5 mg/kg for the first, 20 mg/kg for the second.

Going from CN(C)CC=C(CCCBr)c1ccccc1 [Example 2, 6-Bromo-N,N-dimethyl-3-phenyl-2-hexenylamine Hydrobromide] to CN(C)CCC(=CCCBr)c1ccccc1 [Example 3, 6-Bromo-N,N-dimethyl-N,N-dimethyl-3-hexenylamine Hydrobromide], the ED50 rises from 0.5 mg/kg to 1.9 mg/kg (3.8-fold).

Going from CN(C)CCC=C(CCCCl)c1ccccc1 [Example 5, 7-Chloro-N,N-dimethyl-4-phenyl-3-heptenylamine Oxalate] to CN(C)CCC(CCCCl)c1ccccc1 (centres unmarked) [Example 8, 6-Chloro-N,N-dimethyl-3-phenylhexylamine Hydrochloride], the ED50 falls from 10 mg/kg to 3.6 mg/kg (2.8-fold).

Going from COc1ccc(C(=CCCCl)CCN(C)C)cc1 [Example 6, 6-Chloro-N,N-dimethyl-3-(4-methoxyphenyl)-3-hexenylamine Hydrochloride] to CN(C)CCC(=CCCCl)c1cccc(C(F)(F)F)c1 [Example 7, 6-Chloro-N,N-dimethyl-3-(3-trifluoromethylphenyl)-3-hexenylamine Oxalate], the ED50 falls from 28.5 mg/kg to 15.5 mg/kg (1.8-fold).
